Where two headings read alike, the source gives them in different places.
Tests used:
ROCK2 = ROCK2 (Homo sapiens (Human), UniProt O75116); assay: Z'Lyte assay, ROCK2 inhibition at a single concentration; type: biochemical
ROCK1 = ROCK1 (Homo sapiens (Human), UniProt Q13464); assay: Z'Lyte assay, ROCK1 inhibition at a single concentration; type: biochemical
LIMK1 = LIMK1 (Homo sapiens (Human), UniProt P53667); assay: Lanthascreen Eu binding assay (TR-FRET), inhibition of LIMK1
LIMK2 = LIMK2 (Homo sapiens (Human), UniProt P53671); assay: Lanthascreen Eu binding assay (TR-FRET), inhibition of LIMK2
[1] = read-out: % inhibition (ROCK2) 1 uM, 1 uM
[2] = read-out: % inhibition (ROCK1) 1 uM, 1 uM
[3] = read-out: % inhibition (ROCK2) 1 uM
[4] = read-out: % inhibition (ROCK1) 1 uM

LIMK2, sequence (P53671 whole entry): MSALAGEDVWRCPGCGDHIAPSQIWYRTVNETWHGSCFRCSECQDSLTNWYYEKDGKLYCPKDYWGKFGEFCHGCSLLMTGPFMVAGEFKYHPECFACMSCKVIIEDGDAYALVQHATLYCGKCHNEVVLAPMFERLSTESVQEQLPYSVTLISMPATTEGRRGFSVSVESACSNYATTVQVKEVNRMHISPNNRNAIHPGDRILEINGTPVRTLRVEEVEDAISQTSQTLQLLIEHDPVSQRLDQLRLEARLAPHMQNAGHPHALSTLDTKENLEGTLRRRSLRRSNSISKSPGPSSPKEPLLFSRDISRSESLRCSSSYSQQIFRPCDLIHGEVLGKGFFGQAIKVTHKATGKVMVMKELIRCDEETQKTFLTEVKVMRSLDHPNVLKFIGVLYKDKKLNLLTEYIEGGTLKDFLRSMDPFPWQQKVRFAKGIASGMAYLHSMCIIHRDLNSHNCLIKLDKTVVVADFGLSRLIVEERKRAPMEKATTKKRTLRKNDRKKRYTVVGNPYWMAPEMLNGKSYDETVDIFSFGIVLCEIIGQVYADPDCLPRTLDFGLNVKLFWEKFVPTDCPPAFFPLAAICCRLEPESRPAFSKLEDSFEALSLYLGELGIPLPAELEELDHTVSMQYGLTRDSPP
ROCK1, sequence (Q13464 whole entry): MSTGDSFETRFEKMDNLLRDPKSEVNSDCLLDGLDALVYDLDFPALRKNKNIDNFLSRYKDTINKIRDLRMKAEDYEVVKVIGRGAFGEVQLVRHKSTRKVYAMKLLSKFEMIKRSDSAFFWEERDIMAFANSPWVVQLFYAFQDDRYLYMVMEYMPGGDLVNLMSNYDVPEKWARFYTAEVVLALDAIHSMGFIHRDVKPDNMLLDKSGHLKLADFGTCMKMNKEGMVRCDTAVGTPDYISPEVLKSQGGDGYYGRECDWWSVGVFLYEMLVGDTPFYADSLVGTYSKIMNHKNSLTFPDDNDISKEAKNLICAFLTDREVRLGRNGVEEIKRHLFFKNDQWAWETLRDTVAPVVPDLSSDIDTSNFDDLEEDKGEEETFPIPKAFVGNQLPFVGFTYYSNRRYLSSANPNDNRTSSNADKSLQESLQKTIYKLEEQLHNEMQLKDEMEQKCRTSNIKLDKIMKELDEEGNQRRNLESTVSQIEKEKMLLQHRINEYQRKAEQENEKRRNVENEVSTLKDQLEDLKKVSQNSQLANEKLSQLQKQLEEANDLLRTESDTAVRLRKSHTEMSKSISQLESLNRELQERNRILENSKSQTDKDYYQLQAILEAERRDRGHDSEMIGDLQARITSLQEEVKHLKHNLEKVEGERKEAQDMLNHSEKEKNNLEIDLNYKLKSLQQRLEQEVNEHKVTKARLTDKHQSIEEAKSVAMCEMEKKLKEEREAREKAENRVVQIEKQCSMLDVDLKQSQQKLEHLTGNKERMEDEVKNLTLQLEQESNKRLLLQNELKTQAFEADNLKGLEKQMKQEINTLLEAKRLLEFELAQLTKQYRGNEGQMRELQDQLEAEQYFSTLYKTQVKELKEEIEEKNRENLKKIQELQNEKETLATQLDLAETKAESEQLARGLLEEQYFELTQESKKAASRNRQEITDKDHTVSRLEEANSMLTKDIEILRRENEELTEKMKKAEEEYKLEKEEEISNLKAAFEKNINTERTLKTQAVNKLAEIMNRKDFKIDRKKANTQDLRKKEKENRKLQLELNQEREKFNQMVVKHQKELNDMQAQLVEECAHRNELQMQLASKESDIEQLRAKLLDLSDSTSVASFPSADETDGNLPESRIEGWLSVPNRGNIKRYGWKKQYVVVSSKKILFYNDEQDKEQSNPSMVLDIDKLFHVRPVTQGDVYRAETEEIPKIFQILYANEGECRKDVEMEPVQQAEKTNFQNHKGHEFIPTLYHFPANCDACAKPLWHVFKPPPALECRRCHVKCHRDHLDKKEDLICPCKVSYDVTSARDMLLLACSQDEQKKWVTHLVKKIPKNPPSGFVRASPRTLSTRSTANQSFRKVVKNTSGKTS
ROCK2, sequence (O75116 whole entry): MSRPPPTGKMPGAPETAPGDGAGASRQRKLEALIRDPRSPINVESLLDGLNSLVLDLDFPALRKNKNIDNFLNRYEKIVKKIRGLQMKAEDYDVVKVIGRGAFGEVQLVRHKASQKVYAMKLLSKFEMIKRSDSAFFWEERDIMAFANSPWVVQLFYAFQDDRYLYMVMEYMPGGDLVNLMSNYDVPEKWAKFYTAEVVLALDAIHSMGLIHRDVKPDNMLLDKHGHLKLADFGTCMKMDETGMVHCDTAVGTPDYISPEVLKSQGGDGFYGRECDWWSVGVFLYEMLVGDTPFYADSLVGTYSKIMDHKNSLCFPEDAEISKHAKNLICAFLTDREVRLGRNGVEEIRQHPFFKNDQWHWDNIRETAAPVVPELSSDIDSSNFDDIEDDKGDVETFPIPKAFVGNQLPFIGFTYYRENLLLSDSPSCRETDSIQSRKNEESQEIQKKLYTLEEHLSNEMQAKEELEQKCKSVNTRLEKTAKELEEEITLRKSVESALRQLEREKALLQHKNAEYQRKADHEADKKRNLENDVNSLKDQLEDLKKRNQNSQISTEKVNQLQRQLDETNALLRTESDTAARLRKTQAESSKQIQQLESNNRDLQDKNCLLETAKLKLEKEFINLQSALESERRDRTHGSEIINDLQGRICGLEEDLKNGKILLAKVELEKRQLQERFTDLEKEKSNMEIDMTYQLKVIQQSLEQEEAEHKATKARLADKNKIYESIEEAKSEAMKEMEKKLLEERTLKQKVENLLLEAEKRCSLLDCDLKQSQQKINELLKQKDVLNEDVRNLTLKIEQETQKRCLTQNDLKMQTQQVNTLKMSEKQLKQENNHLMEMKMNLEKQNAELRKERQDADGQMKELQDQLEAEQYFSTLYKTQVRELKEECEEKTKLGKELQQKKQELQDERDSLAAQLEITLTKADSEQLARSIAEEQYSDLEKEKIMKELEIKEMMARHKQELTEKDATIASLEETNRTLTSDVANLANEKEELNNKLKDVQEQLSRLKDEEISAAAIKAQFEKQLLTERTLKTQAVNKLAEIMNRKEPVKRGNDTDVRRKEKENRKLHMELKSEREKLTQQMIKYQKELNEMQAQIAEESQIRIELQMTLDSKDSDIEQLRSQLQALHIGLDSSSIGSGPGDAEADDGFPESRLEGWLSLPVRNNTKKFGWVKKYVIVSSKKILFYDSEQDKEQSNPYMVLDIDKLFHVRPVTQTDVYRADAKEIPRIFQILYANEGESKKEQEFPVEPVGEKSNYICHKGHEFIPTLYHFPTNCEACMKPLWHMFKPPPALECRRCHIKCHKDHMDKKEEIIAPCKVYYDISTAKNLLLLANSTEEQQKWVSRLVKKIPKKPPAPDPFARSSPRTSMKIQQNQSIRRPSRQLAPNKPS
LIMK1, sequence (P53667 whole entry): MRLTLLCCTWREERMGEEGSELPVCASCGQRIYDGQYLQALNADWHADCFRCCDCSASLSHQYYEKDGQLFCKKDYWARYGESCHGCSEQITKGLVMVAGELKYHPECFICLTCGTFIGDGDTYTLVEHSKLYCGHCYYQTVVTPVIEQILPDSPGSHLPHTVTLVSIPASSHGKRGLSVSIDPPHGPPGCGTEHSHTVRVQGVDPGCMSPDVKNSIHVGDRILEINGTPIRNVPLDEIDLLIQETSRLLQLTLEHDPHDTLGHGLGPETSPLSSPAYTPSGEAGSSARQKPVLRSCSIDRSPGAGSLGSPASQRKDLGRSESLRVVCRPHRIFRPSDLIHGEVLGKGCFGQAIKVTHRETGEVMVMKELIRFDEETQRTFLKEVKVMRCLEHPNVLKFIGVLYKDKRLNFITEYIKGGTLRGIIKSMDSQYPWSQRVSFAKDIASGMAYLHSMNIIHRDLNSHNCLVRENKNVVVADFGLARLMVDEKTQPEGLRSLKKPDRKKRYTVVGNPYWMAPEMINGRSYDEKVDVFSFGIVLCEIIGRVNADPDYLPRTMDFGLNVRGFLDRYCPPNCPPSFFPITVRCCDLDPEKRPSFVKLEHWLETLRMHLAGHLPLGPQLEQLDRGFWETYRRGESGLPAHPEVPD

Row | SMILES | inhibition at 1 µM (ROCK2; [1]) | inhibition at 1 µM (ROCK1; [2]) | Ki (LIMK1; Lanthascreen Eu binding assay) | Ki (LIMK2; Lanthascreen Eu binding assay) | inhibition at 1 µM (ROCK2; [3]) | inhibition at 1 µM (ROCK1; [4]) | Ki (LIMK1) | Ki (LIMK2)
1 | O=C(Nc1cccc(-c2ccncc2)c1)N1CC=C(c2ncnc3[nH]c4c(c23)CCC4)CC1 [Compound 124, N-(3-(Pyridin-4-yl)phenyl)-4-(5,6,7,8-tetrahydrocyclopenta [4,5]pyrrolo[2,3-d]pyrimidin-4-yl)-3,6-dihydropyridine-1(2H)-carboxamide] | 2% | 7% | 6.49 nM | 19.6 nM | – | – | – | –
2 | Cc1c[nH]c2ncnc(C3=CCN(C(=O)Nc4cccc(Oc5cccc(F)c5)c4)CC3)c12 [Compound 200, N-(3-(3-fluorophenoxy)phenyl)-4-(5-methyl-7H-pyrrolo[2,3-d]pyrimidin-4-yl)-3,6-dihydropyridine-1(2H)-carboxamide] | 13% | 35% | 46.2 nM | 9.83 nM | – | – | – | –
3 | CNC(=O)c1cc(Oc2ccc(NC(=O)N3CC=C(c4ncnc5[nH]cc(C)c45)CC3)cc2)ccn1 [Compound 196, N-methyl-4-(4-(4-(5-methyl-7H-pyrrolo[2,3-d]pyrimidin-4-yl)-1,2,3,6-tetrahydropyridine-1-carboxamido)phenoxy)picolinamide] | 12% | 21% | 192 nM | 49.3 nM | – | – | – | –
4 | Cc1c[nH]c2ncnc(C3=CCN(C(=O)Nc4cccc(Oc5cccc(N(C)C)c5)c4)CC3)c12 [Compound 177, N-(3-(3-(dimethylamino)phenoxy)phenyl)-4-(5-methyl-7H-pyrrolo[2,3-d]pyrimidin-4-yl)-3,6-dihydropyridine-1(2H)-carboxamide] | 30% | 49% | 33.6 nM | 150 nM | – | – | – | –
5 | Cc1c[nH]c2ncnc(C3=CCN(C(=O)Nc4cccs4)CC3)c12 [Compound 33, 4-(5-methyl-7H-pyrrolo[2,3-d]pyrimidin-4-yl)-N-(2-thienyl)-3,6-dihydro-2H-pyridine-1-carboxamide] | 87% | 96% | 50.1 nM | 186 nM | – | – | – | –
6 | CC(=O)NCCCOc1cccc(-c2cccc(NC(=O)N3CC=C(c4ncnc5[nH]cc(C)c45)CC3)c2)c1 [Compound 40, N-(3′-(3-Acetamidopropoxy)-[1,1′-biphenyl]-3-yl)-4-(5-methyl-7H-pyrrolo[2,3-d]pyrimidin-4-yl)-5,6-dihydropyridine-1(2H)-carboxamide] | 22% | 33% | 10.6 nM | 13.4 nM | – | – | – | –
7 | Cc1c[nH]c2ncnc(C3=CCN(C(=O)Nc4cccc(OCC5CCN(C)CC5)c4)CC3)c12 [Compound 195, 4-(5-methyl-7H-pyrrolo[2,3-d]pyrimidin-4-yl)-N-(3-((1-methylpiperidin-4-yl)methoxy)phenyl)-3,6-dihydropyridine-1(2H)-carboxamide] | 93% | 99% | 174 nM | 189 nM | – | – | – | –
8 | Cc1c[nH]c2ncnc(C3=CCN(C(=O)Nc4cccc(-n5cncn5)c4)CC3)c12 [Compound 26, N-(3-(1H-1,2,4-Triazol-1-yl)phenyl)-4-(5-methyl-7H-pyrrolo[2,3-d]pyrimidin-4-yl)-3,6-dihydropyridine-1(2H)-carboxamide] | 64% | 85% | 278 nM | 90.7 nM | – | – | – | –
9 | Cc1c[nH]c2ncnc(C3=CCN(C(=O)Nc4cccc(OCCN5CCN(C)CC5)c4)CC3)c12 [Compound 184, 4-(5-methyl-7H-pyrrolo[2,3-d]pyrimidin-4-yl)-N-(3-(2-(4-methylpiperazin-1-yl)ethoxy)phenyl)-3,6-dihydropyridine-1(2H)-carboxamide] | 78% | 87% | 710 nM | 1470 nM | – | – | – | –
10 | Cc1c[nH]c2ncnc(C3=CCN(C(=O)Nc4cccc(OCCCNC(=O)OC(C)(C)C)c4)CC3)c12 [Compound 188, tert-Butyl (3-(3-(4-(5-methyl-7H-pyrrolo[2,3-d]pyrimidin-4-yl)-1,2,3,6-tetrahydropyridine-1-carboxamido)phenoxy)propyl)carbamate] | 33% | 48% | 65 nM | 50.8 nM | – | – | – | –
11 | Cc1c[nH]c2ncnc(C3=CCN(C(=O)Nc4cccc(Oc5cccc(OC(=O)N(C)C)c5)c4)CC3)c12 [Compound 216, 3-(3-(4-(5-methyl-7H-pyrrolo[2,3-d]pyrimidin-4-yl)-1,2,3,6-tetrahydropyridine-1-carboxamido)phenoxy)phenyl dimethylcarbamate] | – | – | 4.88 nM | 14.6 nM | 56% | 71% | – | –
12 | Cc1c[nH]c2ncnc(C3=CCN(C(=O)Nc4cccc(Oc5cccc(O)c5)c4)CC3)c12 [Compound 213, N-(3-(3-hydroxyphenoxy)phenyl)-4-(5-methyl-7H-pyrrolo[2,3-d]pyrimidin-4-yl)-3,6-dihydropyridine-1(2H)-carboxamide] | 27% | 55% | 12.9 nM | 16.3 nM | – | – | – | –
13 | Cc1c[nH]c2ncnc(C3=CCN(C(=O)Nc4cccc(OCCCN5CCN(C)CC5)c4)CC3)c12 [Compound 185, 4-(5-methyl-7H-pyrrolo[2,3-d]pyrimidin-4-yl)-N-(3-(3-(4-methylpiperazin-1-yl)propoxy)phenyl)-3,6-dihydropyridine-1(2H)-carboxamide] | 97% | 99% | 669 nM | 863 nM | – | – | – | –
14 | O=C(Nc1cccc(-c2ccccc2)c1)N1CC=C(c2ncnc3[nH]c4c(c23)CCC4)CC1 [Compound 123, N-([1,1′-Biphenyl]-3-yl)-4-(5,6,7,8-tetrahydrocyclopenta[4,5]pyrrolo[2,3-d]pyrimidin-4-yl)-3,6-dihydropyridine-1(2H)-carboxamide] | – | – | 11.5 nM | 16.2 nM | 1% | 10% | – | –
15 | CC(C)(C)OC(=O)NCCCOc1cccc(-c2cccc(NC(=O)N3CC=C(c4ncnc5[nH]cc(C6CC6)c45)CC3)c2)c1 [Compound 165, tert-butyl N-[3-[3-[3-[[4-(5-cyclopropyl-7H-pyrrolo[2,3-d]pyrimidin-4-yl)-3,6-dihydro-2H-pyridine-1-carbonyl]amino]phenyl]phenoxy]propyl]carbamate] | 7% | -2% | 169 nM | 58.1 nM | – | – | – | –
16 | CN1CCc2[nH]c3ncnc(C4=CCN(C(=O)Nc5cccc(Cl)c5)CC4)c3c2C1 [Compound 161, N-(3-Chlorophenyl)-4-(6-methyl-6,7,8,9-tetrahydro-5H-pyrido[3′,4′:4,5]pyrrolo[2,3-d]pyrimidin-4-yl)-3,6-dihydropyridine-1(2H)-carboxamide] | – | – | 1170 nM | 2440 nM | -9% | 1% | – | –
17 | CC(=O)Nc1cccc(Oc2cccc(NC(=O)N3CC=C(c4ncnc5[nH]cc(C)c45)CC3)c2)c1 [Compound 219, N-(3-(3-acetamidophenoxy)phenyl)-4-(5-methyl-7H-pyrrolo[2,3-d]pyrimidin-4-yl)-3,6-dihydropyridine-1(2H)-carboxamide] | 37% | 60% | 4.93 nM | 5.46 nM | – | – | – | –
18 | CNC(=O)c1cc(Oc2cccc(NC(=O)N3CC=C(c4ncnc5[nH]cc(C)c45)CC3)c2)ccn1 [Compound 198, N-methyl-4-(3-(4-(5-methyl-7H-pyrrolo[2,3-d]pyrimidin-4-yl)-1,2,3,6-tetrahydropyridine-1-carboxamido)phenoxy)picolinamide] | 65% | 79% | 3.08 nM | 2.89 nM | – | – | – | –
19 | O=C(Nc1ccccc1)N1CC=C(c2ncnc3[nH]c4c(c23)CCCC4)CC1 [Compound 120, N-Phenyl-4-(6,7,8,9-tetrahydro-5H-pyrimido[4,5-b]indol-4-yl)-3,6-dihydropyridine-1(2H)-carboxamide] | – | – | 14.9 nM | 29.6 nM | -9% | 0% | – | –
20 | Cc1c[nH]c2ncnc(C3=CCN(C(=O)N[C@@H]4CCCc5ccccc54)CC3)c12 [Compound 35-R, 4-(5-methyl-7H-pyrrolo[2,3-d]pyrimidin-4-yl)-N-tetralin-1-yl-3,6-dihydro-2H-pyridine-1-carboxamide] | – | – | – | – | 12% | 24% | 851 nM | 2540 nM
21 | Cc1c[nH]c2ncnc(C3=CCN(C(=O)Nc4cccc(Oc5cccc(Cl)c5)c4)CC3)c12 [Compound 204, N-(3-(3-chlorophenoxy)phenyl)-4-(5-methyl-7H-pyrrolo[2,3-d]pyrimidin-4-yl)-3,6-dihydropyridine-1(2H)-carboxamide] | 46% | 71% | 50.5 nM | 15.6 nM | – | – | – | –
22 | CNC(=O)c1cccc(Oc2cccc(NC(=O)N3CC=C(c4ncnc5[nH]cc(C)c45)CC3)c2)c1 [Compound 222, 4-(5-methyl-7H-pyrrolo[2,3-d]pyrimidin-4-yl)-N-(3-(3-(methylcarbamoyl)phenoxy)phenyl)-3,6-dihydropyridine-1(2H)-carboxamide] | 48% | 66% | 4.59 nM | 2.96 nM | – | – | – | –
23 | Cc1c[nH]c2ncnc(C3=CCN(C(=O)Nc4cccc(Oc5ccc(Br)cc5Cl)c4)CC3)c12 [Compound 206, N-(3-(4-bromo-2-chlorophenoxy)phenyl)-4-(5-methyl-7H-pyrrolo[2,3-d]pyrimidin-4-yl)-3,6-dihydropyridine-1(2H)-carboxamide] | 3% | 13% | 418 nM | 676 nM | – | – | – | –
24 | O=C(Nc1cccc(Oc2ccccc2)c1)N1CC=C(c2ncnc3[nH]c4c(c23)CCCC4)CC1 [Compound 126, N-(3-Phenoxyphenyl)-4-(6,7,8,9-tetrahydro-5H-pyrimido[4,5-b]indol-4-yl)-3,6-dihydropyridine-1(2H)-carboxamide] | -5% | 7% | 30.2 nM | 20.5 nM | – | – | – | –
